Assays:
[1] = target: cAMP-dependent protein kinase catalytic subunit alpha/beta/gamma (Homo sapiens, UniProt P17612+P22694+P22612); experiment: Inhibitory activity against protein kinase A.
[2] = target: Protein kinase C (PKC); experiment: Inhibitory activity against protein kinase C.

| Structure (SMILES) | IC50 [1] | IC50 [2] |
| --- | --- | --- |
| Clc1cc2c3cc[nH]cc-3nc2c(Cl)c1OCC1CC1 [6,8-Dichloro-7-cyclopropylmethoxy-9H-beta-carboline] | > 25 µM | > 25 µM |
| O=[N+]([O-])c1cc(Cl)cc2c1[nH]c1cnccc12 [6-Chloro-8-nitro-9H-beta-carboline] | > 25 µM | > 25 µM |
| COc1ccccc1C(=O)Nc1cc(Cl)cc2c3cc[nH]cc-3nc12 [N-(6-Chloro-9H-beta-carbolin-8-yl)-2-methoxy-benzamide] | > 25 µM | > 25 µM |
| COc1cccc(C(=O)Nc2cc(Cl)cc3c4cc[nH]cc-4nc23)c1 [N-(6-Chloro-9H-beta-carbolin-8-yl)-3-methoxy-benzamide] | > 25 µM | > 25 µM |
| COc1ccc(C(=O)Nc2cc(Cl)cc3c4cc[nH]cc-4nc23)cc1 [N-(6-Chloro-9H-beta-carbolin-8-yl)-4-methoxy-benzamide] | > 25 µM | > 25 µM |

— BindingDB's records for doi:10.1016/s0960-894x(03)00408-6 (Millennium Pharmaceuticals, 2003)
